For orientation: IC50 means the concentration that inhibits the measured activity by half. As usually defined, the melting point is the temperature of the solid-liquid transition.

20 molecules from patent US20100120762A1, “Triazine derivatives as inhibitors of phosphodiesterases” (WYETH, priority 2008, published 2010) can be followed below.

“Also recorded” adds a separate entry of the source. Bounds are passed on as bounds.

For data set [1], the target named is T1, PDE2A (NM002599) (Homo sapiens, UniProt O00408).
T1 construct: made in house; host or cells: baculovirus / SF21 insect cells
T1 sequence (O00408 whole entry): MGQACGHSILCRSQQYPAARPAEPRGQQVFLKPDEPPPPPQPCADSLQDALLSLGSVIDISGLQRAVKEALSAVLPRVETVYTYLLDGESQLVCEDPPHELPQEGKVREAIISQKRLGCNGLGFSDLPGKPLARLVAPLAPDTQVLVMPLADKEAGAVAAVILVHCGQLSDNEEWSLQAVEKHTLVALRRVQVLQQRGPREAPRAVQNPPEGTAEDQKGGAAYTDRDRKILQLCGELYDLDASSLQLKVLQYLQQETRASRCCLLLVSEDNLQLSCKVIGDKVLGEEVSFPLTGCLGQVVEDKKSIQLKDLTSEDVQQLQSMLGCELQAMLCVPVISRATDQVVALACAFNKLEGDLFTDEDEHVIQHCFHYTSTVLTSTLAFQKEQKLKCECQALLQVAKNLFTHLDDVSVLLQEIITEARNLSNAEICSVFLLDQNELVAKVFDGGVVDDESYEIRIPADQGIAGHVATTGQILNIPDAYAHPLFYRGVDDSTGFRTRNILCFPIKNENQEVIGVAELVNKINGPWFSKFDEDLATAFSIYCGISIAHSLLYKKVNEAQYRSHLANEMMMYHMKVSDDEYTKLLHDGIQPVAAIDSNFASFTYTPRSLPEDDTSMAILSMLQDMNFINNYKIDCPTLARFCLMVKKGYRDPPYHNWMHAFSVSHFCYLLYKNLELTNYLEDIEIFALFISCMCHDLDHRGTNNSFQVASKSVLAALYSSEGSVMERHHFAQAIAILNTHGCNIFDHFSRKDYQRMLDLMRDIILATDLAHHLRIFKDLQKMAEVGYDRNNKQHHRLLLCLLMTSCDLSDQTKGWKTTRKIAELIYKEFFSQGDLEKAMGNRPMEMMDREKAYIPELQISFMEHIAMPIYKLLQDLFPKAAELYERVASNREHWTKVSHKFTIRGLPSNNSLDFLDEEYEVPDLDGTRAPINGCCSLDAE
The experiment in a line: Inhibition of recombinant PDE2A (expressed in baculovirus/SF21-cells). The data set is classed as biochemical. The conditions noted are these: recombinant PDE2A, 0.5 μM [3H]-cAMP, 1000 nM cGMP, 37° C., 30 minutes, SPA; read-out: PDE2A IC50. The gist of the method:
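Membrane fraction from SF21 cells, assayed in 50 mM Tris-HCl/5 mM MgCl2 (pH 7.4) with 0.5 μM [3H]-cAMP plus 1000 nM cGMP as stimulator; non-specific activity was measured without cGMP. Reaction ran 30 min at 37° C, was stopped with SPA beads and read by scintillation counting. IC50 came from a Hill-plot 2-parameter model.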

Data set [2] concerns the target T2, PDE10A1 (AB 020593) (Homo sapiens, UniProt Q9Y233).
T2 construct: made in house; host or cells: baculovirus / SF21 insect cells (gene synthesized by Entelechon GmbH)
The experiment in a line: Inhibition of recombinant PDE10A (baculovirus/SF21 system). The conditions noted are these: recombinant cytosolic PDE10A, 0.1 μM [3H]-cAMP, 37° C., 30 minutes, SPA; read-out: PDE10A IC50. The data set is classed as biochemical. The gist of the method: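 Cytosolic PDE10A1 expressed in SF21 cells via baculovirus, incubated with 0.1 μM [3H]-cAMP in 50 mM Tris-HCl/5 mM MgCl2, pH 7.4, 30 min at 37 °C. SPA-bead scintillation read-out, with enzyme-free wells as background. IC50 from Hill plot, 2-parameter model.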

Data set [3] deals with mice. The experiment in a line: Forced swim test. The conditions noted are these: immobility recorded during last 4 min of 6 min, FIG. 1. Format: in vivo, mouse. How it is done:
The forced swim test is an established animal model of depression (Yacoubi et al., 2001). Mice which are forced to swim in a restricted area from which they cannot escape will rapidly cease attempts to escape and adopt a characteristic immobile posture which can be readily identified and timed. Immobility is taken as depression-related behaviour in the animal (Porsolt, 1979). For the test a glass cylinder (height: 20 cm, internal diameter: 15 cm) containing 11 cm water maintained at 23° C. is used. On the day of experiment the mice are forced to swim in the water for 6 min and the immobility time is recorded during the last 4 min of the 6-min-period. Afterwards animals are removed from the water, dried with a paper towel and put under infrared light. […] Results are analyzed by t-test (two groups) or one way analysis of variance (ANOVA) when several groups are compared. Tukey test is used for individual comparison. P<0.05 is regarded as significant.

Data set [4] has as its system Female Wistar-rats. The experiment in a line: Novel object recognition test. Format: in vivo, rat. The following applies: MK-801 0.025 mg/kg intraperitoneally, compound given orally 30 min prior to the test session, FIG. 3. How it is done: The novel object recognition is an animal model of learning and memory (Rutten et al., 2006a, 2006b).
The novel object recognition is performed in glass aquaria (40×60×40 cm) that have 3 black walls and one transparent wall. The floor consists of black, antislip PVC. Objects of different material (iron, plastic, coated hardwood) and forms and similar size are used for the experiment. The objects are positioned 10 cm from the wall and 35-40 cm from each other. Female Wistar-rats are used for this experiment.
One day before the experiment rats have 15 min to habituate to the arena and two objects.
On the first day of the experiment rats are placed into the arena and have five min to explore two equal objects. To disturb the learning process, MK-801 at 0.025 mg/kg is administered intraperitoneally on the first day of the experiment 30 min before the test starts.
On the second day of the experiment (24 h later) rats are again placed into the arena and have 5 min to explore one of the old objects and a novel object. […]
The following parameters are recorded: • 1. the time the rats spent with each object on the first day • 2. the time the rats spent with each object on the second day • 3. percent of time rats spent with the novel object on the second day […]
Results are analyzed by t-test (two groups) or one way analysis of variance (ANOVA) when several groups are compared. […]

Data set [5] has as its system mice. The experiment in a line: Light and dark box test. Format: in vivo, mouse. The following applies: 5 min exploration, FIG. 2. From the text: The light and dark box is an established animal model of anxiety (Crawley, 1985). The light and dark box consists of two chambers (each 30×30 cm) that are connected by an opening. There is an aversive chamber with white walls that is brightly lit (600 lux) and a dark chamber with black walls that is only lit by an infrared lamp ([…]). Untreated mice predominately stay in the dark chamber whereas mice treated with an anxiolytic compound go more often into the light chamber resulting in an increased number of transitions between the boxes and increased time in the light box. In addition the distance traveled in the dark chamber is regarded as an activity-related parameter. For the experiment, mice are placed in the light box after the pre-treatment time. Recording time starts when the mouse enters the dark box for the first time. Then the animal has 5 min to explore the two chambers. The behavior of the mice is recorded by video and analyzed by VideoMot 2 (TSE systems, Germany). […] Results are analyzed by t-test (two groups) or one way analysis of variance (ANOVA) when several groups are compared. Tukey test is used for individual comparison. P<0.05 is regarded as significant.

T2 sequence (Q9Y233 other isoform, or with tags, fused parts or gaps): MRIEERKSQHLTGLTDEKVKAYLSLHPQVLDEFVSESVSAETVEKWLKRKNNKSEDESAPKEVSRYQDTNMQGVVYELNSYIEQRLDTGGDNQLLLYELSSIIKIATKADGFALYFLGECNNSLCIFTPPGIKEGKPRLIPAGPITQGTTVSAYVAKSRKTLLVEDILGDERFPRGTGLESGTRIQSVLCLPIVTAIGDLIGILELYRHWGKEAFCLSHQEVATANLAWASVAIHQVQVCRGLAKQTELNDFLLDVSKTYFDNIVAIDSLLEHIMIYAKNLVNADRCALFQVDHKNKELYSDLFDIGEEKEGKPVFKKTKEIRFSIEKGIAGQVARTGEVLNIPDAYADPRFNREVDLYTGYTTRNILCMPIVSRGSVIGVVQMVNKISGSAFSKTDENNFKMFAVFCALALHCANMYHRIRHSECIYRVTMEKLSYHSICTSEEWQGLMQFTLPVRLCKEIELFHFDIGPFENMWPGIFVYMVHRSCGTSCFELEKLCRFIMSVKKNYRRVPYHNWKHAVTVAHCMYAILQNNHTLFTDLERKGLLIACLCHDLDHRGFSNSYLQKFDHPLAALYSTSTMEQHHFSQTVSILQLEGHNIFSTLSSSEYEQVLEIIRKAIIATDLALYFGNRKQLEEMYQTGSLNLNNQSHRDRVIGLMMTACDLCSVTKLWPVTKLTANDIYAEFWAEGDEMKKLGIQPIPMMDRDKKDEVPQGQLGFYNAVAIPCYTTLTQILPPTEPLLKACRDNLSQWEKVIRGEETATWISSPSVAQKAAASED

Molecule `COc1ccc2nnc3c(-c4ccccc4)ncn3c2n1` [Example 124, 8-Methoxy-3-phenyl-imidazo[5,1-c]pyrido[2,3-e][1,2,4]triazine] showed a melting point of 225 to 227 °C. The IC50 in data set [1] is over 500 nM. For the same molecule, the IC50 in data set [2] was over 500 nM.
`CCc1ncc2nnc3ccc(OC)nc3n12` [Example 3, 1-ethyl-8-methoxy-imidazo[5,1-c]pyrido[2,3-e][1,2,4]triazine] came in with a melting point of 167 to 168 °C. In addition, the IC50 in data set [1] is over 1000 nM. Further, the half-inhibitory concentration (IC50) in data set [2] was 4460 nM.
The like results for `c1ccc(-c2ncn3c2nnc2cccnc23)cc1` [Example 125, 3-phenyl-imidazo[5,1-c]pyrido[2,3-e][1,2,4]triazine] were, in that order, 225 to 227 °C, over 1000 nM and over 1000 nM.
Take `Cc1nc(-c2cc(Cl)ccc2Cl)n2c1nnc1ccc(Cl)nc12` [Example 118, 8-chloro-1-(2,5-dichloro-phenyl)-3-methyl-imidazo[5,1-c]pyrido[2,3-e][1,2,4]triazine]: the melting point lay within 151 to 154 °C. Moreover, the IC50 in data set [1] worked out at 11.8 nM. Also, the IC50 in data set [2] was 228 nM.
The like results for `COc1ccc2nnc3c(C)nc(-c4ccccn4)n3c2n1` [Example 10, 8-methoxy-3-methyl-1-(2-pyridyl)-imidazo[5,1-c]-pyrido[2,3-e][1,2,4]triazine] were, in that order, 216 to 220 °C, 2200 nM and 3810 nM.
`COc1ccc2nnc3c(C)nc(-c4ccccc4Cl)n3c2n1` [Example 6, 1-(2-chlorophenyl)-8-methoxy-3-methyl-imidazo[5,1-c]-pyrido[2,3-e][1,2,4]triazine]: the figures for the IC50 in data set [1] and in data set [2] were 3.83 nM and 20.9 nM, respectively. In addition, the “effect in the forced swim test (antidepressant; immobility time)” value in data set [3] is “antidepressant effect; also recorded: significant effect”. The “effect in the novel object recognition test (cognition enhancing)” value in data set [4] is “significant effect”. The “effect in the light and dark box test (anxiolytic)” value in data set [5] is listed as “anxiolytic effect; also recorded: significant effect”.
As to `Cc1nc(-c2ccccc2Cl)n2c1nnc1ccc(N3CCOCC3)nc12` [Example 123, 1-(2-Chloro-phenyl)-3-methyl-8-morpholin-4-yl-imidazo[5,1-c]pyrido[2,3-e][1,2,4]triazine], the melting point lay within 251 to 254 °C. Besides, the IC50 in data set [1] was 5.13 nM. In addition, the half-maximal inhibitory concentration (IC50) in data set [2] was 15.7 nM.
The like results for `COc1ccc2nnc3c(C)nc(-c4ccccc4)n3c2n1` [Example 4, 8-methoxy-3-methyl-1-phenyl-imidazo[5,1-c]-pyrido[2,3-e][1,2,4]triazine] were, in that order, 214 to 217 °C, 89.3 nM and 131 nM.
With `CCC(C)c1nc(C)c2nnc3ccc(OC)nc3n12` (stereo not shown) [Example 12, 8-methoxy-3-methyl-1-(sec-butyl)-imidazo[5,1-c]-pyrido[2,3-e][1,2,4]triazine], the melting point was in the range of 157 to 159 °C. For the same molecule, in data set [1], the IC50 was 136 nM. The half-maximal inhibitory concentration (IC50) in data set [2] worked out at 94.8 nM.
The molecule `CCc1nc(C)c2nnc3ccc(OC)nc3n12` [Example 2, 1-ethyl-8-methoxy-3-methyl-imidazo[5,1-c]pyrido[2,3-e][1,2,4]triazine] gave a melting point of 202 to 203 °C. Besides, the half-maximal inhibitory concentration (IC50) in data set [1] is 399 nM. The half-maximal inhibitory concentration (IC50) in data set [2] was 297 nM.
The like results for `COc1ccc2nnc3cnc(-c4ccccc4Cl)n3c2n1` [Example 8, 1-(2-chlorophenyl)-8-methoxy-imidazo[5,1-c]pyrido[2,3-e][1,2,4]triazine] were, in that order, 190 to 193 °C, 96.5 nM and 454 nM.
The like results for `CCCc1nc(C)c2nnc3ccc(OC)nc3n12` [Example 1, 8-methoxy-3-methyl-1-propyl-imidazo[5,1-c]-pyrido[2,3-e][1,2,4]triazine] were, in that order, 163 to 165 °C, 88.8 nM and 102 nM.
As to `COc1ccc2nnc3c(C)ncn3c2n1` [Example 5, 8-methoxy-3-methyl-imidazo[5,1-c]-pyrido[2,3-e][1,2,4]triazine], the melting point lay within 213 to 214 °C. The half-inhibitory concentration (IC50) in data set [1] was over 10000 nM. The half-inhibitory concentration (IC50) in data set [2] is over 1000 nM.
The like results for `COc1ccc2nnc3cnc(C(C)C)n3c2n1` [Example 7, 1-isopropyl-8-methoxy-imidazo[5,1-c]-pyrido[2,3-e][1,2,4]triazine] were, in that order, 159 to 162 °C, 2980 nM and 2890 nM.
`Cc1cn(-c2ccc3nnc4c(C)nc(-c5cc(Cl)ccc5Cl)n4c3n2)c(-c2cc(Cl)ccc2Cl)n1` [Example 119, 1-(2,5-dichloro-phenyl)-8-[2-(2,5-dichloro-phenyl)-4-methyl-imidazol-1-yl]-3-methyl-imidazo[5,1-c]pyrido[2,3-e][1,2,4]triazine]: the melting point was determined as 130 °C. Besides, the IC50 in data set [1] was found to be 41 nM. Besides, the IC50 in data set [2] worked out at 240 nM.
The like results for `COc1ccc2nnc3c(C)nc(C4CCCCC4)n3c2n1` [Example 11, 8-methoxy-3-methyl-1-(cyclohexyl)-imidazo[5,1-c]-pyrido[2,3-e][1,2,4]triazine] were, in that order, 174 to 177 °C, 56.3 nM and 41.4 nM.
As for `COc1ccc2nnc3c(C)nc(CC(C)C)n3c2n1` [Example 13, 8-methoxy-3-methyl-1-(iso-butyl)-imidazo[5,1-c]-pyrido[2,3-e][1,2,4]triazine], the melting point is 143.5 to 145 °C. Also, the concentration for half-maximal inhibition (IC50) in data set [1] worked out at 30.3 nM. In addition, the IC50 in data set [2] came to 12.9 nM.
The like results for `COc1ccc2nnc3c(C4CC4)nc(-c4ccccn4)n3c2n1` [Example 122, 3-Cyclopropyl-8-methoxy-1-pyridin-2-yl-imidazo[5,1-c]pyrido[2,3-e][1,2,4]triazine] were, in that order, 162 to 164 °C, 5190 nM and 8100 nM.
In turn, `COc1ccc2nnc3c(C4CC4)nc(-c4cccc(Cl)c4)n3c2n1` [Example 121, 1-(3-Chloro-phenyl)-3-cyclopropyl-8-methoxy-imidazo[5,1-c]pyrido[2,3-e][1,2,4]triazine] showed a melting point of 155 °C. In addition, in data set [1], the IC50 was 136 nM. Besides, the IC50 in data set [2] was over 500 nM.
Take `COc1cc(OC)cc(-c2nc(C)c3nnc4ccc(OC)nc4n23)c1` [Example 26, 9-(3,5-dimethoxyphenyl)-2-methoxy-7-methylimidazo[5,1-c]pyrido[2,3-e][1,2,4]triazine]: the IC50 came to 125 nM in data set [1] and 120 nM in data set [2].
